# {P} = phosphate
# Assays:
# [1] = test system: PC2 localization in IMCD cells; test: Rescue of PC2 localization by FIP2 siRNA in TNF-alpha treated IMCD cells (immunostaining); type: cell-based
# Experimental: (§1) RNAi specific to FIP2 was used to test if the effect of TNF-alpha on PC2 localization was FIP2-dependent. IMCD cells were transfected with siRNA specific for FIP2 to determine if FIP2 caused mislocalization of PC2 upon TNF-alpha induction.
# (§2) The transfection was performed using the DharmaFECT siRNA transfection reagent (Dharmacon, Chicago, Ill.) according to the manufacturer's protocol.
# In FIGS. 1C and 1 D, anti-PC2 antibodies (96525 FIG. 1C; YCC2 FIG. 1D) at a concentration of 1:500 were used to determine whether FIP2 siRNA reduces or eliminates FIP2 expression to restore PC2 localization in TNF-alpha treated IMCD cells.
# (§3) In FIG. 7A, 4 different siRNAs against FIP2 were transfected into IMCD cells. In FIG. 7B, a Western blot was performed as described above using anti-FIP2 antibody to determine FIP2 levels in IMCD cells, which were transfected with siRNA#05 (SEQ ID NO: 2) and #08 (SEQ ID NO: 8) and then treated with TNF-alpha for 16 hours. In FIGS. 7C-7F, immunostaining was performed as described above with 96525 anti-PC2 antibody or YCC2 anti-PC2 antibody at a concentration of 1:500 with IMCD cells transfected with siRNA#08 (SEQ ID NO: 8) before and after TNF-alpha induction.
# FIP2 [2] = test: FIP2 siRNA knock-down of FIP2 expression in IMCD cells (Western blot); type: cell-based; settings: transfected IMCD cells, comparison of 4 siRNAs
# Experimental: as §1, §2, §3
# Pkd2+/- mice [3] = test: Cyst formation in Pkd2+/- mice treated with etanercept; type: in vivo; settings: 25 μg/mouse/week, 10 weeks, n=14; PBS control 25% (n=16); Fisher's exact test p=0.05
# Experimental: Chronic inhibition of FIP2 expression by a FIP2 inhibitor such as a TNF-alpha inhibitor may alleviate cyst formation. For the TNF-alpha inhibitor etanercept (AMGEN, Thousand Oaks, Calif.), treatment experiments, mice were intraperitoneally injected weekly, from week 8.5 (day 60) to week 18.5 (day 130), with 25 μg of etanercept per mouse per week or phosphate buffered saline (PBS).
# To this end, 8-week old Pkd2+/− mice were treated with either etanercept […] administered at 25 μg/mouse/week), or phosphate buffered saline (PBS) in the control group. […] This frequency is consistent with that reported previously (21%, n=29). Remarkably, none of etanercept-treated mice developed kidney cysts (n=14).
# Pkd2+/- mice [4] = test: Cyst formation in Pkd2+/- mice injected with TNF-alpha; type: in vivo; settings: 5 μg/mouse/week intraperitoneal, week 4 to week 8.5; control 0 of 10; Fisher's exact test p=0.04
# Experimental: The in vitro results described above indicate that TNF-alpha may be a strong physiological modifier of FIP2 that promotes the ADPKD disease phenotype at the organismal level. To test this hypothesis in vivo, 4 week old Pkd2+/− mice were directly injected intra-peritoneally with TNF-alpha (5 μg/mouse, 1 injection/wk) for 4 weeks. Pkd2 mutant mice (Pkd2-183) were kindly provided by Stephan Somlo (Yale University). For TNF-alpha (Genzyme Diagnostic, Cambridge, Mass.) treatment experiments, mice were intraperitoneally injected weekly, from week 4 (day 28) to week 8.5 (day 60), with 5 μg of TNF-alpha per mouse per week or phosphate buffered saline (PBS). 9-17 week old Pkd2+/− mice developed cysts at a frequency of 0.21. Accordingly, the natural frequency of cyst formation may be much lower in the 4 week olds.
# [5] = test system: PC2 localization in inner medullary collecting duct (IMCD) cells; test: Immunofluorescence of PC2 localization in IMCD cells after TNF-alpha induction; type: cell-based
# Experimental: […] IMCD (ATCC catalog no. CRL-2123) cells were cultured in Dulbecco's modified Eagle's medium/F12 medium supplemented with 10% (v/v) fetal bovine serum (Invitrogen). Then, these cells were induced with TNF-alpha at a final concentration of 200 ng/ml. Immunofluorescence of the IMD cells was performed before and after 16 hours of TNF-alpha exposure.
# Immunofluorescence was carried out as previously described. Li et al, Polycystin-1 and polycystin-2 regulate the cell cycle through the helix-loop-helix inhibitor Id2. Nat Cell Biol, 7(12):1202-12 (2005). Primary antibodies were used at the following dilutions: FIP2 (1:100), PC1 (1:500), PC2 (1:500), and flag (1:500). Secondary antibodies used included goat-anti-rabbit IgG-fluorescein isothiocyanate (Molecular Probes, Eugene, Oreg.) and goat-anti-mouse IgG-Texas Red (1:500 dilution; Molecular Probes). Images were captured on an inverted microscope (Axiovert 200M, Carl Zeiss, inc.) equipped with a spinning disc confocal head (Yogogawa), Argon-Krypton laser system (Prairie Technologies, Inc.), and ORCA-ER CCD camera (Hamamatsu). Images were acquired using the Metamorph software (Molecular Devices) and 3D image reconstruction was performed using the Volocity (Improvision, Inc.) software.
# The disruption of PC2 localization by TNF-alpha was further confirmed using immunoprecipitation, western blotting, and a TUNEL Assay. […]
# [6] = test system: TNF-alpha receptor (TNFR); test: Immunoblot of TNFR level in TNF-alpha treated IMCD cells; type: cell-based
# Experimental: (§4) The disruption of PC2 localization by TNF-alpha was further confirmed using immunoprecipitation, western blotting, and a TUNEL Assay. Immunoprecipitation and Western blotting were performed on whole-cell lysates as previously described. Li et al, Polycystin-1 and polycystin-2 regulate the cell cycle through the helix-loop-helix inhibitor Id2. Nat Cell Biol, 7(12):1202-12 (2005). The antibodies used for Western blotting included rabbit polyclonal anti-FIP2 51, rabbit anti-PC2 polyclonal antibody 96525 50, rabbit anti-PC1 polyclonal antibody 96521, rabbit anti-Rab8 polyclonal antibody and rabbit anti-TNFR-I polyclonal antibody. Secondary antibodies used included: goat-anti-rabbit IgG-fluorescein isothiocyanate (FITC Molecular Probes, Eugene, Oreg.), goat-anti-mouse IgG-Texas Red, (1:500 dilution; Molecular Probes). For western blotting, goat-anti-rabbit IgG-horseradish peroxidase (HRP or goat-anti-mouse IgG-HRP, 1:10,000 dilution; Amersham Pharmacia Biotech) were used as secondary antibodies.
# (§5) Primary cell cultures were prepared as described previously. The cells were propagated in DMEM/F12 supplemented with 5% FBS, 5 μg/ml insulin, 5 μg/ml transferrin and 5 ng/ml sodium selenite (ITS) and 100 IU/ml penicillin G and 0.1 mg/ml streptomycin. […]
# IMCD cells = type: cell-based
# Experimental: To confirm that localization of PC2 was not due to cell death, a TUNEL Assay was performed. Cells treated with or without TNF-alpha were fixed with 4% PFA. The TUNEL assay was performed using a fluorescent apoptosis-detection system (R&D systems, Minneapolis, Minn.) according to the manufacturer's instructions. Fixed cells were treated with TACS-nuclease for the positive control.
# FIP2 [7] = test: Immunoblot of FIP2 level in TNF-alpha treated IMCD cells; type: cell-based
# Experimental: as §4, §5
# [8] = test system: cultured embryonic kidneys (E15.5); test: Mouse embryonic kidney organ culture cyst formation assay
# Experimental: Embryonic kidneys were dissected in PBS (with calcium and magnesium) plus penicillin-streptomycin-glutamine (GiBCO, Grand Island, N.Y.) from embryos of wild type CD1 mice at E15.5, E16.5 or E17.5 and of C57BL/6 Pkd1+/− or C57BL/6 Pkd2+/− mice or their wild type counterparts at E15.5. The dissected kidneys were cultured at 37° C. in DMEM/F12 containing 2 mM L-glutamine, 10 mM Hepes, 5 μg/ml insulin, 5 μg/ml transferrin, […] selenium, 25 ng/ml prostaglandin E1, 32 pg/ml T3 and 250 IU/ml penicillin-streptomycin. The kidneys were cultured with or without TNF-alpha (Genzyme Diagnostic, Cambridge, Mass.) at different concentrations for 48 hours and then 50 μM 8-Bromo-cyclic AMP (Sigma, St. Louis, Mo.) was added for 5 days. The cultured kidneys were then fixed with 4% paraformaldehyde (PFA) in PBS for 6 hours, washed with PBS twice for 5 minutes each, and transferred to 70% EtOH for short-term storage at room temperature or for more extended storage at 4° C. The fixed kidney samples were subsequently processed for Hematoxylin and Eosin staining following a common histology protocol.
# To test the effect of TNF-alpha treatment, the culture conditions were modified using E15.5 kidneys and a low concentration of cAMP, such that there was no cyst formation (0/32 kidneys observed) in the absence of TNF-alpha (see top panel FIGS. 2A and 2B). […] (FIG. 2B). […] Thus, in FIG. 2B, treatment with different concentrations of TNF-alpha for 5 days triggered cyst formation in Pkd2+/− cultured kidneys from E15.5 embryos.
substance,measurement,setting,value
"siRNA#08: siRNA against FIP2 (Dharmacon); sense SEQ ID NO: 7, antisense SEQ ID NO: 8 (sense CCAUGAAGCUAAAUAAUCAUU; antisense UGAUUAUUUAGCUUCAUGGUU; sense: RNA, backbone not given here; antisense: RNA, 5' {P}, backbone not given here)",PC2 localization after TNF-alpha induction,[1]; immunostaining with 96525 anti-PC2 antibody,rescued the TNF-alpha effect on PC2 localization
same,PC2 cilia localization after TNF-alpha induction,[1]; immunostaining with YCC2 anti-PC2 antibody,rescued the PC2 cilia localization
same,effect on FIP2 expression,FIP2 [2],strongest effect
etanercept,mice that developed kidney cysts,Pkd2+/- mice [3],none
TNF-alpha,mice that developed unilateral cysts,Pkd2+/- mice [4],4 of the 10
same,cells showing loss of PC2 staining at the plasma membrane and cilia,"[5]; 200 ng/ml TNF-alpha, 16 hours, anti-PC2 antibody 96525",100%
same,PC2 cilia localization,"[5]; TNF-alpha 16 hr, YCC2 anti-PC2 antibody, confocal microscopy",loss of PC2 localization along the primary cilia
same,increase of TNFR levels,[6],35%
same,TUNEL staining (cell death),IMCD cells,negative for TUNEL staining
same,induction of FIP2 level,FIP2 [7],2 fold
same,lowest TNF-alpha concentration resulting in cyst formation,"[8]; Pkd2+/- embryonic kidneys, 5 days",1.5 ng/mL
same,cultured kidneys with cyst formation,"[8]; wild type embryonic kidneys, 6.25-12.5 ng/ml TNF-alpha, five days, low cAMP",20/20
same,lowest TNF-alpha concentration resulting in cyst formation,"[8]; wild type embryonic kidneys, five days",6.25 ng/mL
